{"source": "paper PMC9090415", "about": "“Discovery of small molecule inhibitors of Plasmodium falciparum apicoplast DNA polymerase” (Journal of Enzyme Inhibition and Medicinal Chemistry, 2022)", "target": "P. falciparum apicoplast DNA polymerase (Pf-apPOL) (Plasmodium falciparum, UniProt Q8ILY1)", "sequence (Q8ILY1 entry or part of it)": "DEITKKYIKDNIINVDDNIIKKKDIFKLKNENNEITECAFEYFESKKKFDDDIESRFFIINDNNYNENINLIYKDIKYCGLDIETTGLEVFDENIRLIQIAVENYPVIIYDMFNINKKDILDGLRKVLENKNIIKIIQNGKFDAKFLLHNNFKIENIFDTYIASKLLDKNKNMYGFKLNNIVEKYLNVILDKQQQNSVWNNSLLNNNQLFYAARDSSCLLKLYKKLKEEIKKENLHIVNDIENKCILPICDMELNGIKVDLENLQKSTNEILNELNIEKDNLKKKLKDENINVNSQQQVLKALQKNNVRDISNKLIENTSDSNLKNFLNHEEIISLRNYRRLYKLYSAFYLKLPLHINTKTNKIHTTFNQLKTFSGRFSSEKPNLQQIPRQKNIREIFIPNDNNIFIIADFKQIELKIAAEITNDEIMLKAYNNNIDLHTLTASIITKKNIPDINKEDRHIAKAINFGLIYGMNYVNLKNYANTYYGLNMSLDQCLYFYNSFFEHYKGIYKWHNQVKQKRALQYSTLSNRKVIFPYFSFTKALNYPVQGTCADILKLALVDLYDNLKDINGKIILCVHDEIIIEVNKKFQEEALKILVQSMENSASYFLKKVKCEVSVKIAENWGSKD", "assay": "Fluorescence-based high-throughput DNA polymerase assay (molecular beacon), primary screen and dose-response;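 for % inhibition Apol 40': compound concentration given in µM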", "assay_type": "biochemical", "conditions": "for IC50: supplemental file 2, sheet IC50 nontoxic compounds, Pf-apPOL; for DNA Pol: 90 min, 10 µM", "experimental": "The HT assay employs a molecular beacon, a stem-loop DNA template with a Cy3 dye and the Black Hole Quencher on the 3′ and 5′ ends of the DNA, respectively. Pf-apPOL concentration is based on a calculated absorptivity of ε280 = 56750 M^−1 cm^−1. Reactions were carried out at 25 °C, using Corning 3575 […] (well-volume, 20 µL). Assays testing for compound inhibition composed of reaction buffer (pH 7.9 in 50 mM potassium acetate, 20 mM Tris-acetate and 10 mM magnesium acetate), Pf-apPOL (20 nM), DNA substrate (20 nM), dNTPs (6 µM), and compound (10 µM in DMSO). The DNA and nucleotide substrates (dNTPs) were at concentrations of 20 nM and 6 µM, respectively, in the assay. Pf-apPOL was incubated in the reaction buffer with dNTPs and the compound of interest (10 µM, in the assay) at 25 °C for 10 min. The DNA substrate was then added and the reaction was allowed to proceed for 90 min at 25 °C.\nEach assay plate contained 16 negative controls (no Pf-apPOL, DMSO present) and 16 positive controls (Pf-apPOL present, no DMSO). The fluorescence of each well was determined using a BioTek Synergy Neo fluorescence plate reader using excitation and emission wavelengths of 555 and 570 nm, respectively.\nIn the above, Min is the average of fluorescence emission of the negative controls (substrate only), Max the average fluorescence emission from the positive controls (enzyme + substrate), and Test the emission from the assays in the presence of compounds (enzyme + compound + substrates). […] […] The IC50 of each compound was determined using Equation (2): (2) IC50= Vmax/(1+ (I/IC50)^n)\nIn the above, n measures cooperativity, with n > 1 indicating synergistic binding of more than a single molecule of the compound.\nTo identify apPOL inhibitors we utilised our previously developed high-throughput DNA polymerase assay. The HT assay is based on a molecular beacon DNA template that forms a stem-loop with a Cy3 dye and the Black Hole Quencher on the 3′ and 5′ ends of the DNA, respectively. DNA polymerase activity extends an annealed primer through the stem region, displacing the fluorophore from the quencher, thereby increasing its fluorescence (Figure 1(A)). The assay accurately recapitulates the kinetic behaviour of apPOL, as measured through more conventional low-throughput gel-based assays. The Z′ factor for the assay described here was 0.9 across all plates (data not shown).\nFigure 1. High-throughput screening. (A) The fluorescent-based DNA polymerase assay used to screen the compound libraries. The DNA template strand is a hairpin loop with a primer annealed to the loop. The 3’ end of the primer is 11 bases away from the 6 bp duplex. Strand displacement activity of the DNA polymerase separates the Cy3 dye from the Black hole quencher leading to an increase in fluorescent signal. (B) The high-throughput assay workflow. The DNA polymerase is incubated with […] compound for 10 min prior to addition of the hairpin substrate. The reaction is quenched at 3 different time points and the fluorescent signal is measured and % inhibition is determined using the provided equation.", "data": [{"smiles": "O=c1cc(CN2CCCCC2)c2cc3c(cc2o1)OCO3", "note": "[Molecule 56]", "values": [{"measurement": "IC50", "value": 38.1, "unit": "µM"}]}, {"smiles": "CSC(C)C(=O)C=CN(C)C", "note": "(stereo not shown) [Molecule 71]", "values": [{"measurement": "IC50", "value": 26.9, "unit": "µM"}]}, {"smiles": "COc1ccccc1C1CC(=O)Oc2cc3c(cc21)OCO3", "note": "(stereo not shown) [KU0104502]", "values": [{"measurement": "DNA Pol", "setting": "'DNA Pol' of the 186 hits list (screen value)", "value": 42}, {"measurement": "% inhibition Apo pol 10'", "setting": "DRC-1, conc 2.5", "value": 16.5835, "unit": "%"}, {"measurement": "% inhibition Apo pol 10'", "setting": "DRC-1, conc 5", "value": 35.5684, "unit": "%"}, {"measurement": "% inhibition Apo pol 10'", "setting": "DRC-1, conc 10", "value": 61.1126, "unit": "%"}, {"measurement": "% inhibition Apo pol 10'", "setting": "DRC-1, conc 20", "value": 76.0203, "unit": "%"}, {"measurement": "% inhibition Apo pol 10'", "setting": "DRC-1, conc 40", "value": 89.9974, "unit": "%"}, {"measurement": "% inhibition Apo pol 10'", "setting": "DRC-1, conc 80", "value": 93.475, "unit": "%"}, {"measurement": "% inhibition Apol 90'", "setting": "DRC-1, conc 2.5", "value": 2.531, "unit": "%"}, {"measurement": "% inhibition Apol 90'", "setting": "DRC-1, conc 5", "value": 13.2862, "unit": "%"}, {"measurement": "% inhibition Apol 90'", "setting": "DRC-1, conc 10", "value": 34.6587, "unit": "%"}, {"measurement": "% inhibition Apol 90'", "setting": "DRC-1, conc 20", "value": 54.2638, "unit": "%"}, {"measurement": "% inhibition Apol 90'", "setting": "DRC-1, conc 40", "value": 81.0345, "unit": "%"}, {"measurement": "% inhibition Apol 90'", "setting": "DRC-1, conc 80", "value": 93.8969, "unit": "%"}, {"measurement": "% inhibition apPOL 180'", "setting": "DRC-1, conc 2.5", "value": -4.384, "unit": "%"}, {"measurement": "% inhibition apPOL 180'", "setting": "DRC-1, conc 5", "value": 1.7201, "unit": "%"}, {"measurement": "% inhibition apPOL 180'", "setting": "DRC-1, conc 10", "value": 18.8078, "unit": "%"}, {"measurement": "% inhibition apPOL 180'", "setting": "DRC-1, conc 20", "value": 38.0211, "unit": "%"}, {"measurement": "% inhibition apPOL 180'", "setting": "DRC-1, conc 40", "value": 74.6782, "unit": "%"}, {"measurement": "% inhibition apPOL 180'", "setting": "DRC-1, conc 80", "value": 93.9211, "unit": "%"}, {"measurement": "% inhibition Apo pol 5'", "setting": "DRC-2, conc 2.5", "value": 10, "unit": "%"}, {"measurement": "% inhibition Apo pol 5'", "setting": "DRC-2, conc 5", "value": 34, "unit": "%"}, {"measurement": "% inhibition Apo pol 5'", "setting": "DRC-2, conc 10", "value": 50, "unit": "%"}, {"measurement": "% inhibition Apo pol 5'", "setting": "DRC-2, conc 20", "value": 59, "unit": "%"}, {"measurement": "% inhibition Apo pol 5'", "setting": "DRC-2, conc 40", "value": 65, "unit": "%"}, {"measurement": "% inhibition Apo pol 5'", "setting": "DRC-2, conc 80", "value": 66, "unit": "%"}, {"measurement": "% inhibition Apol 40'", "setting": "DRC-2, conc 2.5", "value": 4.3, "unit": "%"}, {"measurement": "% inhibition Apol 40'", "setting": "DRC-2, conc 5", "value": 27, "unit": "%"}, {"measurement": "% inhibition Apol 40'", "setting": "DRC-2, conc 10", "value": 47, "unit": "%"}, {"measurement": "% inhibition Apol 40'", "setting": "DRC-2, conc 20", "value": 62, "unit": "%"}, {"measurement": "% inhibition Apol 40'", "setting": "DRC-2, conc 40", "value": 75, "unit": "%"}, {"measurement": "% inhibition Apol 40'", "setting": "DRC-2, conc 80", "value": 80, "unit": "%"}, {"measurement": "% inhibition ApPOL 90'", "setting": "DRC-2, conc 2.5", "value": 1.26, "unit": "%"}, {"measurement": "% inhibition ApPOL 90'", "setting": "DRC-2, conc 5", "value": 23, "unit": "%"}, {"measurement": "% inhibition ApPOL 90'", "setting": "DRC-2, conc 10", "value": 42, "unit": "%"}, {"measurement": "% inhibition ApPOL 90'", "setting": "DRC-2, conc 20", "value": 60, "unit": "%"}, {"measurement": "% inhibition ApPOL 90'", "setting": "DRC-2, conc 40", "value": 77, "unit": "%"}, {"measurement": "% inhibition ApPOL 90'", "setting": "DRC-2, conc 80", "value": 82, "unit": "%"}, {"measurement": "% inhibition apPOL 180'", "setting": "DRC-2, conc 2.5", "value": -2.17, "unit": "%"}, {"measurement": "% inhibition apPOL 180'", "setting": "DRC-2, conc 5", "value": 12, "unit": "%"}, {"measurement": "% inhibition apPOL 180'", "setting": "DRC-2, conc 10", "value": 31, "unit": "%"}, {"measurement": "% inhibition apPOL 180'", "setting": "DRC-2, conc 20", "value": 53, "unit": "%"}, {"measurement": "% inhibition apPOL 180'", "setting": "DRC-2, conc 40", "value": 78, "unit": "%"}, {"measurement": "% inhibition apPOL 180'", "setting": "DRC-2, conc 80", "value": 85, "unit": "%"}, {"measurement": "DNA Pol", "setting": "primary screen value, \"DNA Pol\"", "value": 42}]}]}
